One data set concerns the target T1, human VIPR1 (Homo sapiens, UniProt P32241).
T1 construct: host or cells: CHO-K1
T1 sequence (P32241 31-457): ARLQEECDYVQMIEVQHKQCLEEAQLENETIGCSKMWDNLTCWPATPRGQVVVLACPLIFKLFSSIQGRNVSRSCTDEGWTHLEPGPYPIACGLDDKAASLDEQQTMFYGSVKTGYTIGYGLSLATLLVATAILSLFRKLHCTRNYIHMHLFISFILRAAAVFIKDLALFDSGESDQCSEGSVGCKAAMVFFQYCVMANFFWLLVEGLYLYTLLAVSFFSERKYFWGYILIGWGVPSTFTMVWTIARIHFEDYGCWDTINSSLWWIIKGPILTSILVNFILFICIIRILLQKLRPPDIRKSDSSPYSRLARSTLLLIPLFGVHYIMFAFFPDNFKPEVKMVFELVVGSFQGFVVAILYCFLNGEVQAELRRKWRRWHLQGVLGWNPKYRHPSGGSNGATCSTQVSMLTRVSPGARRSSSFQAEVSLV
Kind of data set: Calcium influx assay, antagonist activity against VIP-VIPR1 signaling. As to conditions: ligand VIP (25 nM) at EC80; CHO-K1 cells; n = 4 wells, ± S.E.M; read-out: Ca influx assay [IC50 (nM)] VIPR1. The class given is cell-based. The method, then:
(§1) Evaluation of antagonist activities of peptides against VIP-VIPR1, VIP-VIPR2, and PACAP-PAC1 signaling pathways and agonistic activity of KS-133 at VIPR2 was carried out by Eurofins DiscoverX (Fremont, CA, United States). Intracellular calcium mobilization was monitored using a calcium-sensitive dye loaded in CHO-K1 cells expressing human VIPR1 (ITEM 86-0030P-2243AN), VIPR2 (ITEM 86-0030P-2244AN), and PAC1 (ITEM 86-0030P-2066AN). The cells were preincubated with antagonistic peptides for 30 min at room temperature in the dark. After addition of the ligand at EC80, calcium mobilization was immediately monitored by FLIPR Tetra for 2 min. Cyclic AMP production in CHO-K1 cells expressing human VIPR2 was evaluated using HitHunter® cAMP assays (antagonist mode: ITEM 86-0007P-2362AN; agonist mode: ITEM 86-0007P-2362AG). The cells were preincubated with antagonistic peptides for 30 min at room temperature. After addition of the ligand at EC80, cells were further incubated for 30 min at room temperature. Cells were lysed and the cAMP content of the cell lysate was determined by the β-galactosidase-based enzyme fragment complementation assay ([Eglen, 2002]). IC50 values were estimated by the following equation: IC50 = 10^[Log(A/B) × (50–D)/(C–D) + Log(B)], where A is the concentration at >50% inhibition, B is the concentration at <50% inhibition, C is the inhibition rate at concertation A, and D is the inhibition rate at concertation B.
(§2) First, the antagonistic activities of parental VIpep-3, KS-132, KS-133 (monocyclic) (no bridging between Lys^7 and Asp^11), and KS-133 against human VIPR1, VIPR2, and PAC1 were evaluated by a calcium influx assay. After antagonistic peptide treatment for 30 min, ligand at a concentration of EC80 was added to the cells and then calcium signaling was measured.
(§3) FIGURE 3 Antagonistic/agonistic activities of peptides in the calcium influx and cAMP assays. For evaluation of the antagonistic activity, the cells were preincubated with antagonistic peptides for 30 min. In the calcium influx assay, after addition of ligand at EC80, calcium mobilization was monitored immediately (see details in the Methods section) (n = 4 wells for each treatment). In the cAMP assay, after a 30 min incubation with the ligand at EC80, cAMP production in cells was measured (see details in the Methods section) (n = 4 wells for each treatment).

The next data set deals with T2, human PAC1 (Homo sapiens, UniProt P41586).
T2 construct: host or cells: CHO-K1
T2 sequence (P41586 21-468): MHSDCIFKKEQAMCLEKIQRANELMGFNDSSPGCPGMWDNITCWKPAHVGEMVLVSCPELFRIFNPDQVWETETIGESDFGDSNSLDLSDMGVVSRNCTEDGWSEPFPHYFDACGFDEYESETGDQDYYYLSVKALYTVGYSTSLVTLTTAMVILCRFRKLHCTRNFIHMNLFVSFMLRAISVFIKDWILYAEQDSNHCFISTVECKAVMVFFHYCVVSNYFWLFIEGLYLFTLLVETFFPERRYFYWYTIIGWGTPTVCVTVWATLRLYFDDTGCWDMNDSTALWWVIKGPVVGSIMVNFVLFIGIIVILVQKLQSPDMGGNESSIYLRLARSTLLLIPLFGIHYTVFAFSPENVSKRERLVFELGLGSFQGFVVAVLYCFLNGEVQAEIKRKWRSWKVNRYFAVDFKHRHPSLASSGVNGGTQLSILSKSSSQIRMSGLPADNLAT
Put plainly: Calcium influx assay, antagonist activity against PACAP-PAC1 signaling. The class given is cell-based. Particulars: ligand PACAP (35 nM) at EC80; CHO-K1 cells; n = 4 wells, ± S.E.M; read-out: Ca influx assay [IC50 (nM)] PAC1. The method, then: as §1, §2, §3

Data set [1] in a line: Peptide stability in rat plasma (RP-HPLC). Particulars: for Stability in rat plasma / RP-HPLC peak area, incubation time 24 h / remaining at 24 h, 0.476 mM: 37°C, 24 h; for RP-HPLC peak area, Input (NT): no plasma treatment; for RP-HPLC peak area, incubation time 24 h / remaining at 24 h, 0.476 mM / RP-HPLC peak area, immediately after mixing / Residual rate, immediately after mixing: rat plasma; for remaining at 24 h, 0.476 mM: read-out: Residual rate, incubation time 24 h. The class given is in vitro ADME. The method, then:
Each peptide (10 mM, 1 μl) was incubated with rat plasma (20 μl) prepared in-house. Immediately after mixing with plasma and after 24 h of incubation at 37°C, 80% acetonitrile (200 μl) was added to extract VIpep-3 and acetonitrile (200 μl) was added to extract KS-132, KS-133(monocyclic), and KS-133. The mixture was stored for 10 min on ice and then centrifuged at 20,000 × g for 10 min at 4°C. The supernatant was recovered and directly applied to RP-HPLC to determine the remaining amount of unmodified peptides in the sample.
The stability of peptides was evaluated in rat plasma. A peptide was incubated in rat plasma at 37°C for 0 and 24 h and the remaining amount of peptide was determined by RP-HPLC. By comparison with the peak area of the peptide, the remaining amount of the peptide after plasma incubation was estimated. […] KS-133(monocyclic) may form a pseudo bicyclic structure by ionic bond interaction between side chains of Lys and Asp.

Another data set has as its system VIPR2. More on the design: method as in Sakamoto et al. (2018). Particulars: versus VIPR1 and PAC1; ref Sakamoto et al. (2018); cited from earlier work.
For a further data set, the target named is T3, human VIPR2 (Homo sapiens, UniProt P41587).
T3 construct: host or cells: CHO-K1
T3 sequence (P41587 24-438): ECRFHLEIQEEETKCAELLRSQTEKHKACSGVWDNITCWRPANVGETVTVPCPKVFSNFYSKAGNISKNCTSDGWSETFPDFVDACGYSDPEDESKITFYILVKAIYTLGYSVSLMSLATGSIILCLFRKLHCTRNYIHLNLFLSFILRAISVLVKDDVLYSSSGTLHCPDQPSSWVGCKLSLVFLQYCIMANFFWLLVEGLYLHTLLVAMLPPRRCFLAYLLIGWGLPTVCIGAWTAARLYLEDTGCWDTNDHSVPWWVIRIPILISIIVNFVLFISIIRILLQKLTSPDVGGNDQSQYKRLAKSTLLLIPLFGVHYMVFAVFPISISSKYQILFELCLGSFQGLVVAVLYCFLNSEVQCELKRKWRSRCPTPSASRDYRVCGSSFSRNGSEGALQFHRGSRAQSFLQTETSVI
Put plainly: Calcium influx assay, antagonist activity against VIP-VIPR2 signaling. The class given is cell-based. Particulars: ligand VIP (150 nM) at EC80; CHO-K1 cells; n = 4 wells, ± S.E.M; read-out: Ca influx assay [IC50 (nM)] VIPR2. As for the experimental part: as §1, with “The cells were preincubated with antagonistic peptides for 30 min at room temperature. After addition of the ligand at EC80, cells were further incubated for 30 min at room temperature.” left out, “IC50 values were estimated by the following equation: IC50 = 10^[Log(A/B) × (50–D)/(C–D) + Log(B)], where A is the concentration at >50% inhibition, B is the concentration at <50% inhibition, C is the inhibition rate at concertation A, and D is the inhibition rate at concertation B.” left out
First, the antagonistic activities of parental VIpep-3, KS-132, KS-133 (monocyclic) (no bridging between Lys^7 and Asp^11), and KS-133 against human VIPR1, VIPR2, and PAC1 were evaluated by a calcium influx assay. After antagonistic peptide treatment for 30 min, ligand at a concentration of EC80 was added to the cells and then calcium signaling was measured. […]

Each structure is given as a SMILES string. Where a SMILES comes first, the peptide text is derived from it. Bridges are numbered along the chain shown (N, C = ends). [ ]: non-standard residue; d: D form. Dap = NC[C@H](N)C(=O)O Some results are limits rather than exact numbers.

`CC(=O)N[C@H]1CSSC[C@@H](C(=O)N[C@H](C(=O)N[C@@H](CC(C)C)C(=O)N[C@@H](CC(C)C)C(=O)N[C@@H](CC(C)C)C(=O)N[C@@H](CCCNC(=N)N)C(=O)N[C@@H](CO)C(=O)O)[C@@H](C)O)NC(=O)[C@H](CC(C)C)NC(=O)[C@H](CCCNC(=N)N)NC(=O)[C@H](CCCNC(=N)N)NC(=O)[C@@H]2CCCN2C(=O)[C@H](CC(C)C)NC(=O)[C@H](Cc2ccc(O)cc2)NC(=O)[C@@H]2CCCN2C(=O)[C@@H]2CCCN2C1=O` [VIpep-3, Ac-c(CPPYLPRRLC)TLLLRS-OH, reference compound] (Ac-CPPYLPRRLCTLLLRS-OH; disulfide 1-10): the IC50 on human VIPR1 is above 5000 nM. Further, the IC50 on human PAC1 was above 5000 nM. In addition, in data set [1], the “Stability in rat plasma” value is listed as “significantly degraded within 24 h”; the “RP-HPLC peak area, Input (NT)” value amounted to 1299273; the “RP-HPLC peak area, incubation time 24 h” value was 95354; the remaining at 24 h, 0.476 mM turned out to be 10.6%. Besides, in data set [1], the “RP-HPLC peak area, immediately after mixing” value (“RP-HPLC peak area, immediately” for short) is recorded as 900813 and the “Residual rate, immediately after mixing” value is 100%. The “Receptor selectivity for VIPR2 compared with the two other receptor subtypes” value with VIPR2 is on record as “more than 50 fold”.
As for `CC[C@H](C)[C@H](NC(=O)[C@H](CC(C)C)NC(=O)[C@H](CN)NC(=O)[C@@H]1CSSC[C@H](NC(C)=O)C(=O)N2CCC[C@H]2C(=O)N2CCC[C@H]2C(=O)N[C@@H](Cc2ccc(O)cc2)C(=O)N[C@@H](CC(C)C)C(=O)N2CCC[C@H]2C(=O)N[C@@H](CN)C(=O)N[C@@H](Cc2ccc(O)cc2)C(=O)N[C@@H](CC(C)C)C(=O)N1)C(N)=O` [KS-132, Ac-c(Cys-Pro-Pro-Tyr-Leu-Pro-Dap-Tyr-Leu-Cys)-Dap-Leu-Ile-NH2] (Ac-CPPYLP[Dap]YLC[Dap]LI-NH2; disulfide 1-10), the IC50 on human VIPR1 is above 5000 nM. Also, on human VIPR2, the IC50 was 33.4 ± 2.8 nM. Besides, at human PAC1, the IC50 is above 5000 nM. In addition, in data set [1], the “Stability in rat plasma” value is given as “significantly degraded within 24 h”; the “RP-HPLC peak area, Input (NT)” value is reported as 1460241; the “RP-HPLC peak area, incubation time 24 h” value turned out to be 696652; the remaining at 24 h, 0.476 mM was determined as 57.8%. Besides, in data set [1], the “RP-HPLC peak area, immediately” value stood at 1206247 and the “Residual rate, immediately after mixing” value is recorded as 100%.
As for `CC[C@H](C)[C@H](NC(=O)[C@H](CC(C)C)NC(=O)[C@H](CC(=O)O)NC(=O)[C@@H]1CSSC[C@H](NC(C)=O)C(=O)N2CCC[C@H]2C(=O)N2CCC[C@H]2C(=O)N[C@@H](Cc2ccc(O)cc2)C(=O)N[C@@H](CC(C)C)C(=O)N2CCC[C@H]2C(=O)N[C@@H](CCCCN)C(=O)N[C@@H](Cc2ccc(O)cc2)C(=O)N[C@@H](CC(C)C)C(=O)N1)C(N)=O` [KS-133(monocyclic)] (Ac-CPPYLPKYLCDLI-NH2; disulfide 1-10), at human VIPR1, the IC50 is above 5000 nM. Further, the IC50 on human VIPR2 came to 56 ± 3.9 nM. Moreover, on human PAC1, the IC50 is above 5000 nM. In data set [1], the “Stability in rat plasma” value was “also highly stable”; the “RP-HPLC peak area, Input (NT)” value came out at 768775; the “RP-HPLC peak area, incubation time 24 h” value is reported as 724176; the remaining at 24 h, 0.476 mM was 97.3%. Further, in data set [1], the “RP-HPLC peak area, immediately” value amounted to 744262 and the “Residual rate, immediately after mixing” value stood at 100%.

The record behind these values is paper PMC8607231, “Generation of KS-133 as a Novel Bicyclic Peptide with a Potent and Selective VIPR2 Antagonist Activity that Counteracts Cognitive Decline in a Mouse Model of Psychiatric Disorders” (Frontiers in Pharmacology, 2021).
